Reference: patent US7534871B2, “Preparation and use of carbohydrate-based bicyclic ring structures with antimicrobial and cytostatic activity” (Kemin Pharma B.V.B.A., priority 2004, dated 2009)
≈ marks a conversion by molar mass, not a printed value.

Experiments:
HSV-1 (KOS) = assay: Anti-viral activity: HSV-1-induced cytopathicity in human embryo fibroblast E6SM cell cultures; type: cell-based, herpes simplex virus (HSV); conditions: Human alphaherpesvirus 1, 50%
HSV-2 (G) = assay: Anti-viral activity: HSV-2-induced cytopathicity in human embryo fibroblast E6SM cell cultures; type: cell-based, herpes simplex virus (HSV); conditions: Human alphaherpesvirus 2, 50%
VV = assay: microbe, parasite or virus in culture; type: cell-based; conditions: Orthopoxvirus vaccinia, E6SM, read-out: EC50 VV (E6SM)
VZV OKA = assay: microbe, parasite or virus in culture; type: cell-based, varicella zoster virus (VZV); conditions: Human alphaherpesvirus 3, HEL, read-out: EC50 VZV (HEL) OKA
VZV YS = assay: Anti-viral activity: VZV-induced plaque formation in HEL cell cultures, YS strain; type: cell-based, varicella zoster virus (VZV); conditions: Human alphaherpesvirus 3, VZV-induced plaque formation in human embryonic lung HEL cell cultures, 50%
CMV AD-169 strain = assay: Anti-CMV activity: plaque reduction in HEL cells, AD-169 strain; type: cell-based, human cytomegalovirus (CMV); conditions: Human betaherpesvirus 5, AD169, HEL; Table 6; reduce virus plaque formation by 50%; virus input 100 PFU; read-out: Anti-CMV activity IC50 AD-169 strain
CMV Davis strain = assay: Anti-CMV activity: plaque reduction in HEL cells, Davis strain; type: cell-based, human cytomegalovirus (CMV); conditions: Human betaherpesvirus 5, HEL; Table 6; reduce virus plaque formation by 50%; virus input 100 PFU; read-out: Anti-CMV activity IC50 Davis strain
[1] = tested on: murine leukemia cells (L1210/0); assay: Cytostatic activity: inhibition of proliferation of L1210/0 cells; type: cell-based; conditions: Mus musculus, L1210/0; 50% inhibitory concentration, cell proliferation; read-out: IC50 L1210/0
Method: (§1) The compounds were tested for anti-tumor activity via the inhibitory effects on the proliferation of murine leukemia cells (L1210/0), murine mammary carcinoma cells (FM3A), human T-lymphocyte cells (Molt4/C8, CEM/0) and human cervix carcinoma cells (HeLa).

[2] = tested on: murine mammary carcinoma cells (FM3A); assay: Cytostatic activity: inhibition of proliferation of FM3A cells; type: cell-based; conditions: Mus musculus, 50% inhibitory concentration, cell proliferation, read-out: IC50 FM3A/0
Method: as §1

[3] = tested on: human T-lymphocyte cells (Molt4/C8); assay: Cytostatic activity: inhibition of proliferation of Molt4/C8 cells; type: cell-based; conditions: Molt4/C8, 50% inhibitory concentration, cell proliferation, read-out: IC50 Molt4/C8
Method: as §1

[4] = tested on: human T-lymphocyte cells (CEM/0); assay: Cytostatic activity: inhibition of proliferation of CEM/0 cells; type: cell-based; conditions: CCRF-CEM, 50% inhibitory concentration, cell proliferation, read-out: IC50 CEM/0
Method: as §1

HEL cells = assay: Cytotoxicity: alteration of cell morphology (MCC); type: cell-based, human; conditions: minimum cytotoxic concentration that causes a microscopically detectable alteration of cell morphology
[5] = Cytotoxicity: inhibition of HEL cell growth (CC50); type: cell-based; conditions: human; concentration required to reduce cell growth by 50%; HEL cells, three days
Method: The medium was then replaced by MEM containing various concentrations of the test compound. After three days incubation at 37° C., when the cell monolayer was 70% confluent, the cell number was determined with the Coulter counter. The minimum cytotoxic concentration was defined as the concentration required to reduce cell growth by 50%.

| SMILES | EC50 (HSV-1 (KOS)) [µg/mL] | EC50 (HSV-2 (G)) [µg/mL] | EC50 (VV) [µg/mL] | EC50 (VZV OKA) [µg/mL] | EC50 (VZV YS) [µg/mL] | IC50 (CMV AD-169 strain) [µg/mL] | IC50 (CMV Davis strain) [µg/mL] | IC50 [1] [µg/mL] | IC50 [2] [µg/mL] | IC50 [3] [µg/mL] | IC50 [4] [µg/mL] | Cytotoxicity Cell morphology (MCC) (HEL cells) [μg/ml] | CC50 at 3 days [5] [µg/mL] |
| --- | --- | --- | --- | --- | --- | --- | --- | --- | --- | --- | --- | --- | --- |
| c1ccc(CO[C@@H]2[C@@H](OCc3ccccc3)[C@H](Sc3ccccc3)O[C@@H]3CO[C@@H](c4ccccc4)O[C@@H]23)cc1 [KPE00001044] | > 3.2 | > 3.2 | > 3.2 | > 2 | > 2 | > 2 | > 2 | > 200 | 130 ± 61 (≈ 240 µM) | > 200 | > 200 | 5 | > 50 |
| CO[C@@H]1[C@@H](OC)[C@H](Sc2ccccc2)O[C@@H]2CO[C@@H](c3ccccc3)O[C@@H]12 [KPE00001045] | > 3.2 | > 3.2 | > 3.2 | > 2 | > 2 | > 5 | > 5 | > 200 | > 200 | > 200 | > 200 | 20 | 50 (≈ 129 µM) |
| O[C@@H]1[C@@H](O)[C@H](Sc2ccccc2)O[C@@H]2CO[C@@H](c3ccccc3)O[C@@H]12 [KPE00001048] | > 80 | > 80 | > 80 | > 50 | > 50 | 33 (≈ 91.6 µM) | 35 (≈ 97.1 µM) | 103 ± 10 (≈ 286 µM) | 171 ± 41 (≈ 474 µM) | 78 ± 12 (≈ 216 µM) | 75 ± 31 (≈ 208 µM) | >50 | > 50 |
